target: recombinant human MGAT2 (Homo sapiens (Human), UniProt Q3SYC2); experiment: Measurement of human MGAT2 inhibitory activity; type: biochemical; details: recombinant human MGAT2 membrane fraction (Sf-9); 2-Oleoylglycerol and Oleoyl-CoA substrates; 1 hour at room temperature; Diolein detected by RapidFire Q-TOF MS
Source text: A full-length human MGAT2 gene to which a Flag-tag had been added at the N-terminal was inserted into pFastBac (from Invitrogen). A recombinant baculovirus was produced in accordance with the protocol for a Bac-to-Bac baculovirus expression system (produced by Invitrogen), and Sf-9 cells were infected therewith. The cells were collected and sonicated, and then the membrane fraction was collected through centrifugation.
Solutions of the compounds of the present invention in DMSO were each aliquoted into 0.2-μL portions in a 384-well polystyrene microplate produced by Corning Incorporated, and 5 μL of an enzyme solution prepared with an assay buffer (100 mmol/L phosphate buffer (pH 7.4) containing 2 mmol/L DTT) and 5 μL of a substrate solution (100 mmol/L phosphate buffer (pH 7.4), 30 μmol/L 2-Oleoylglycerol, 10 μmol/L Oleoyl-CoA) were added thereto, and the resultant was stirred and centrifuged, and incubated in a moist chamber at room temperature for 1 hour. […] Diolein as a reaction product (P) of 2-Oleoylglycerol as the substrate and an ammonium adduct ion of the IS were detected, and the peak intensity ratio, P/IS, was calculated from the peak heights to evaluate the inhibitory activity. […] The inhibitory activity was calculated from the formula below with TIBCO Spotfire (produced by TIBCO Software Inc.): Inhibitory activity (%)=[1−{Sample−Control(−)}/{Control(+)−Control(−))}]*100 where Sample indicates a peak intensity ratio: P/IS, when the compound of the present invention was added.

Sequence of recombinant human MGAT2 (Q3SYC2 whole entry): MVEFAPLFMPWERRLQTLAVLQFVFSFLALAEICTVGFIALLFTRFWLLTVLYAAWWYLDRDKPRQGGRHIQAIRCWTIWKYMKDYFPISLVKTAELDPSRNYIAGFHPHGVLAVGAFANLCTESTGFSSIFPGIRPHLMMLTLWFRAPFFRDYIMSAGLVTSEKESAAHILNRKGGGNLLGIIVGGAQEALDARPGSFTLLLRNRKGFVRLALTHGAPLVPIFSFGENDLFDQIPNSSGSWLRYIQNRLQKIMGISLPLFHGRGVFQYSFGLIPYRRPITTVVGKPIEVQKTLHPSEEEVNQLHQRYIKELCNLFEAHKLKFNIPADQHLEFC

SMILES | IC50
CC(C)c1ccc(C2=C(CNC(=O)CO)C(=O)N[C@@](c3ccc(OCCCC(F)(F)F)cc3)(C(F)(F)F)C2)nc1 [Compound I-60] | 27 nM
CC(C)c1ccc(C2=C(CNC(=O)CN(C)C)C(=O)N[C@@](c3ccc(OCCCC(F)(F)F)cc3)(C(F)(F)F)C2)nc1 [Compound I-61] | 27 nM
O=C(CO)NCC1=C(c2ccc(OC(F)F)cn2)C[C@](c2ccc(OCCCC(F)(F)F)cc2)(C(F)(F)F)NC1=O [Compound I-62] | 59 nM
O=C(CO)NCC1=C(c2ccc(C(F)F)cn2)C[C@](c2ccc(OCCCC(F)(F)F)cc2)(C(F)(F)F)NC1=O [Compound I-63] | 110 nM
CC(C)(C)OC(=O)N1CC(C(=O)NCC2=C(c3ccc(C(F)F)cn3)C[C@](c3ccc(OCCCC(F)(F)F)cc3)(C(F)(F)F)NC2=O)C1 [Compound I-64] | 14 nM
O=C1N[C@@](c2ccc(OCCCC(F)(F)F)cc2)(C(F)(F)F)CC(c2ccc(C(F)F)cn2)=C1CNC(=O)C1CNC1 [Compound I-65] | 280 nM
CC1(C(=O)NCC2=C(c3ccc(C(F)F)cn3)C[C@](c3ccc(OCCCC(F)(F)F)cc3)(C(F)(F)F)NC2=O)CNC1 [Compound I-66] | 410 nM
O=C1N[C@@](c2ccc(OCCCC(F)(F)F)cc2)(C(F)(F)F)CC(c2ccc(C(F)F)cn2)=C1CNC(=O)C1(F)CNC1 [Compound I-67] | 40 nM
CC(=O)NCC1=C(c2ncc(C3CC3)s2)C[C@](c2ccc(OCCCC(F)(F)F)cc2)(C(F)(F)F)NC1=O [Compound I-68] | 440 nM
CS(=O)(=O)CC(=O)NCC1=C(c2ncc(C3CC3)s2)C[C@](c2ccc(OCCCC(F)(F)F)cc2)(C(F)(F)F)NC1=O [Compound I-69] | 43 nM
CS(=O)(=O)CC(=O)NCC1=C(c2ccc(Br)cn2)C[C@](c2ccc(OCCCC(F)(F)F)cc2)(C(F)(F)F)NC1=O [Compound I-70] | 5.3 nM
CS(=O)(=O)CC(=O)NCC1=C(c2ccc(Br)cn2)C[C@@](c2ccc(OCCCC(F)(F)F)cc2)(C(F)(F)F)NC1=O [Compound I-71] | 940 nM
C=C(C)c1ccc(C2=C(CNC(=O)CS(C)(=O)=O)C(=O)N[C@@](c3ccc(OCCCC(F)(F)F)cc3)(C(F)(F)F)C2)nc1 [Compound I-72] | 1 nM
C=C(C)c1ccc(C2=C(CNC(=O)CS(C)(=O)=O)C(=O)N[C@](c3ccc(OCCCC(F)(F)F)cc3)(C(F)(F)F)C2)nc1 [Compound I-73] | 77 nM
CS(=O)(=O)CC(=O)NCC1=C(c2ccc(C(F)F)cn2)C[C@](c2ccc(C(F)(F)F)cc2)(C(F)(F)F)NC1=O [Compound I-75] | 78 nM
CS(=O)(=O)CC(=O)NCC1=C(c2ccc(OC(F)F)cn2)C[C@](c2ccc(Br)cc2)(C(F)(F)F)NC1=O [Compound I-78] | 25 nM
CC(C)(C(=O)NCC1=C(c2ccc(C(F)F)cn2)C[C@](c2ccc(OCCCC(F)(F)F)cc2)(C(F)(F)F)NC1=O)S(C)(=O)=O [Compound I-80] | 990 nM
CS(=O)(=O)C1(C(=O)NCC2=C(c3ccc(C(F)F)cn3)C[C@](c3ccc(OCCCC(F)(F)F)cc3)(C(F)(F)F)NC2=O)CC1 [Compound I-81] | 140 nM
CC(C(=O)NCC1=C(c2ccc(C(F)F)cn2)C[C@](c2ccc(OCCCC(F)(F)F)cc2)(C(F)(F)F)NC1=O)S(C)(=O)=O (stereo partly drawn) [Compound I-83] | 22 nM
CC(C(=O)NCC1=C(c2ccc(C(F)F)cn2)C[C@](c2ccc(OCCCC(F)(F)F)cc2)(C(F)(F)F)NC1=O)S(C)(=O)=O (stereo partly drawn) [Compound I-85] | 24 nM

SMILES | IC50
CS(=O)(=O)CC(=O)NCC1=C(c2ccc(C(F)F)cn2)C[C@](c2ccc(CCC(F)(F)F)cc2)(C(F)(F)F)NC1=O [Compound I-86] | 1.9 nM
CS(=O)(=O)CC(=O)NCC1=C(c2ccc(C(F)F)cn2)C[C@](c2ccc(C3CC3)cc2)(C(F)(F)F)NC1=O [Compound I-88] | 21 nM
CS(=O)(=O)CC(=O)NCC1=C(c2ccc(C(F)F)cn2)C[C@](c2ccc(OC(F)(F)F)cc2)(C(F)(F)F)NC1=O [Compound I-90] | 27 nM
CS(=O)(=O)CC(=O)NCC1=C(c2ccc(C(F)F)cn2)C[C@](c2ccc(OCC(F)(F)F)cc2)(C(F)(F)F)NC1=O [Compound I-91] | 6.8 nM
CS(=O)(=O)CC(=O)NCC1=C(c2ccc(C(F)F)cn2)C[C@](c2ccc(Br)cc2)(C(F)(F)F)NC1=O [Compound I-94] | 59 nM
CS(=O)(=O)CC(=O)NCC1=C(c2ccc(OC(F)F)cn2)C[C@](c2ccc(C3CC3)cc2)(C(F)(F)F)NC1=O [Compound I-95] | 17 nM
CS(=O)(=O)CC(=O)NCC1=C(c2ccc(C(F)F)cn2)C[C@](c2ccc(CN3CCOCC3)cc2)(C(F)(F)F)NC1=O [Compound I-97] | 39 nM
Cn1cc(-c2ccc([C@]3(C(F)(F)F)CC(c4ccc(OC(F)F)cn4)=C(CNC(=O)CS(C)(=O)=O)C(=O)N3)cc2)cn1 [Compound I-98] | 70 nM
CS(=O)(=O)CC(=O)NCC1=C(c2ccc(OC(F)F)cn2)C[C@](c2ccc(-c3ccccc3)cc2)(C(F)(F)F)NC1=O [Compound I-99] | 26 nM
Cn1ccc(-c2ccc([C@]3(C(F)(F)F)CC(c4ccc(OC(F)F)cn4)=C(CNC(=O)CS(C)(=O)=O)C(=O)N3)cc2)cc1=O [Compound I-100] | 370 nM
CS(=O)(=O)CC(=O)NCC1=C(c2ccc(OC(F)F)cn2)C[C@](c2ccc(C3=CCOCC3)cc2)(C(F)(F)F)NC1=O [Compound I-101] | 42 nM
COC/C=C/c1ccc([C@]2(C(F)(F)F)CC(c3ccc(OC(F)F)cn3)=C(CNC(=O)CS(C)(=O)=O)C(=O)N2)cc1 [Compound I-102] | 21 nM
CS(=O)(=O)CC(=O)NCC1=C(c2ccc(OC(F)F)cn2)C[C@](c2ccc(OCCCC(F)(F)F)cn2)(C(F)(F)F)NC1=O [Compound I-103] | 6.6 nM
CS(=O)(=O)CC(=O)NCC1=C(c2ccc(OC(F)F)cn2)C[C@](c2ccc(OCC(F)F)cc2)(C(F)(F)F)NC1=O [Compound I-105] | 9.2 nM
CS(=O)(=O)CC(=O)NCC1=C(c2ccc(OC(F)F)cn2)C[C@](c2ccc(C(F)(F)F)cc2)(C(F)(F)F)NC1=O [Compound I-108] | 46 nM
CS(=O)(=O)CC(=O)NCC1=C(c2ccc(C(F)F)cn2)CC(c2ccc(Br)cc2F)(C(F)(F)F)NC1=O (stereo not drawn) [Compound I-111] | 33 nM
O=C(CC(F)(F)F)NCC1=C(c2ccc(C(F)F)cn2)C[C@](c2ccc(OCCCC(F)(F)F)cc2)(C(F)(F)F)NC1=O [Compound I-112] | 3.8 nM
CS(=O)(=O)CC(=O)NCC1=C(c2ccc(OC(F)F)cn2)C[C@](c2ccc(OCC(F)(F)F)cc2)(C(F)(F)F)NC1=O [Compound I-114] | 4.1 nM
CS(=O)(=O)CC(=O)NCC1=C(c2ccc(C(F)F)cn2)C[C@](c2ccccc2)(C(F)(F)F)NC1=O [Compound I-115] | 110 nM

From US10335401B2, “Non-aromatic heterocyclic derivative having MGAT2 inhibitory activity” (Shionogi & Co., Ltd., priority 2015, dated 2019)
